The text below walks through data of PubChem BioAssay (NCI).

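A five-concentration, 48-hour dose response in 96-well plates underlies each endpoint, interpolated linearly between surrounding concentrations. TGI: concentration producing complete growth inhibition.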

Some test systems named below: SNB-19 CNS; NCI/ADR-RES ovarian; SF-539 CNS; MDA-MB-435; SK-OV-3 ovarian; MCF7 breast; 786-0 renal; SW-620 colon; T-47D breast; RXF 393 renal; IGROV1 ovarian; HOP-92 NSCLC; MOLT-4 leukemia; CAKI-1 renal; ACHN renal; EKVX NSCLC; UACC-257 melanoma; NCI-H460 lung; HCC-2998 colon.
What all share (experiment): inhibition of tumour cell growth, NCI panel, 48 h

In the case of `COc1cc(NS(C)(=O)=O)ccc1NCc1cnc2ccc3[nH]c(C)ccc3c12`, the TGI in the test with SNB-19 CNS is over 100 µM; with NCI/ADR-RES ovarian it was over 100 µM; in the test on SF-539 CNS, over 100 µM; in the test on MDA-MB-435 it was 80.4 µM; in the test with SK-OV-3 ovarian, over 100 µM; with MCF7 breast, over 100 µM. The TGI was over 100 µM in the test with 786-0 renal; over 100 µM in the test on SW-620 colon; 75 µM in the test on T-47D breast; 39.5 µM with RXF 393 renal; over 100 µM in the test with IGROV1 ovarian; over 100 µM in the test with HOP-92 NSCLC. Further, the TGI with MOLT-4 leukemia was 44.7 µM; in the test on CAKI-1 renal, 68.8 µM; in the test with ACHN renal, over 100 µM; in the test on EKVX NSCLC, over 100 µM; with UACC-257 melanoma it was over 100 µM; in the test on NCI-H460 lung it was over 100 µM.
Consider `CC/C(=N\NC(=O)c1cccnc1)c1ccc2c(c1)OCCO2`, for which the TGI with SNB-19 CNS, with NCI/ADR-RES ovarian, with SF-539 CNS, in the test on MDA-MB-435, with SK-OV-3 ovarian and in the test with MCF7 breast was over 100 µM each time. The TGI in the test with 786-0 renal, in the test on SW-620 colon, with T-47D breast, with RXF 393 renal, with IGROV1 ovarian and in the test on MOLT-4 leukemia was over 100 µM throughout. The TGI in the test on CAKI-1 renal, in the test with ACHN renal, in the test with EKVX NSCLC and with NCI-H460 lung was over 100 µM in each case.
In the case of `S=c1[nH]nc(COc2ccc3c(c2)CCCC3)n1/N=C/c1ccc(Cl)cc1`, the TGI in the test on SNB-19 CNS was 40 µM; in the test on NCI/ADR-RES ovarian, 33.7 µM; with SF-539 CNS, 32.8 µM; with MDA-MB-435, 39.4 µM; with SK-OV-3 ovarian, 32.4 µM; in the test on MCF7 breast it was 27.9 µM. The TGI was 32.7 µM in the test on SW-620 colon; 30.3 µM in the test on T-47D breast; 28.8 µM in the test with RXF 393 renal; 30.6 µM in the test on IGROV1 ovarian; 32.9 µM in the test with HOP-92 NSCLC; 46.9 µM with MOLT-4 leukemia. For the same compound, the TGI in the test with CAKI-1 renal stood at 37.2 µM; in the test with ACHN renal, 36 µM; in the test with EKVX NSCLC it was 34.6 µM; with UACC-257 melanoma, 48.1 µM; in the test with NCI-H460 lung, 30.2 µM.
For the compound `COc1ccc2[nH]c(CCNC(=O)c3cc([N+](=O)[O-])cc([N+](=O)[O-])c3)cc2c1`, the TGI in the test with SNB-19 CNS, in the test on NCI/ADR-RES ovarian, in the test on SF-539 CNS, in the test on MDA-MB-435, with SK-OV-3 ovarian and in the test on MCF7 breast was over 100 µM each time. For the same compound, the TGI in the test with 786-0 renal is over 100 µM; in the test with SW-620 colon, over 100 µM; in the test on T-47D breast, 90.6 µM; in the test on RXF 393 renal it was 56.9 µM; in the test with IGROV1 ovarian it was over 100 µM; in the test on HOP-92 NSCLC, 93.8 µM. Also, the TGI in the test on MOLT-4 leukemia, in the test with CAKI-1 renal, in the test on UACC-257 melanoma and in the test with NCI-H460 lung was over 100 µM in each case.
For the compound `COC(CN(C)C(=O)C(C)NC(=O)c1ccccc1)OC` (centres undefined), the TGI in the test with NCI/ADR-RES ovarian, with SF-539 CNS, with MDA-MB-435, with SK-OV-3 ovarian, with MCF7 breast and in the test with 786-0 renal was over 100 µM throughout. Also, the TGI in the test with SW-620 colon, in the test on T-47D breast, in the test with RXF 393 renal, in the test on IGROV1 ovarian, in the test with HOP-92 NSCLC and in the test with MOLT-4 leukemia was over 100 µM in each case. The TGI with CAKI-1 renal, in the test with ACHN renal, in the test on EKVX NSCLC, in the test with UACC-257 melanoma and in the test on NCI-H460 lung was over 100 µM each time.
Turning to `CC(C)=CCC[C@]1(C)CC[C@]2(C)C3CCC(=C(C)C)[C@@H](CCCO)[C@]3(C)CC[C@@]2(C)C1` (some centres undefined), the TGI with SNB-19 CNS was over 100 µM; with NCI/ADR-RES ovarian, over 100 µM; in the test on MDA-MB-435, over 100 µM; in the test with SK-OV-3 ovarian it was over 100 µM; with MCF7 breast, 67.5 µM; with 786-0 renal, over 100 µM. The TGI was over 100 µM in the test on SW-620 colon; 29.6 µM in the test with T-47D breast; 37.9 µM with IGROV1 ovarian; over 100 µM with MOLT-4 leukemia; over 100 µM in the test with CAKI-1 renal; over 100 µM with ACHN renal. Besides, the TGI with HCC-2998 colon was over 100 µM; with EKVX NSCLC it was over 100 µM; with UACC-257 melanoma it was 77.1 µM; in the test on NCI-H460 lung it was over 100 µM.
`C=C(O)c1ccccc1C#Cc1ccccc1C(=O)OC`: the TGI in the test on SNB-19 CNS, in the test on NCI/ADR-RES ovarian, in the test on SF-539 CNS, in the test with MDA-MB-435, with SK-OV-3 ovarian and in the test with MCF7 breast was over 10 µM throughout. The TGI with 786-0 renal, in the test on SW-620 colon, in the test on T-47D breast, in the test with RXF 393 renal, in the test with IGROV1 ovarian and with MOLT-4 leukemia was over 10 µM throughout. Besides, the TGI in the test on CAKI-1 renal, with ACHN renal, with HCC-2998 colon, in the test on EKVX NSCLC, with UACC-257 melanoma and with NCI-H460 lung was over 10 µM each time.
As to `c1ccc2c(c1)ccc1nc(-c3ccc4c(c3)OCO4)c3c(c12)CCCC3`, the TGI in the test on SNB-19 CNS is over 100 µM; in the test on NCI/ADR-RES ovarian it was over 100 µM; with SF-539 CNS, 34.2 µM; in the test on MDA-MB-435, 87.7 µM; in the test on SK-OV-3 ovarian, over 100 µM; with MCF7 breast, over 100 µM. Moreover, the TGI with 786-0 renal is over 100 µM; in the test on SW-620 colon, over 100 µM; in the test on T-47D breast, 94.5 µM; in the test on MOLT-4 leukemia it was over 100 µM; in the test with CAKI-1 renal, over 100 µM; in the test on ACHN renal, over 100 µM. In addition, the TGI in the test on HCC-2998 colon, in the test with EKVX NSCLC, in the test with UACC-257 melanoma and with NCI-H460 lung was over 100 µM throughout.
